For 26 compounds, IC50 results are on record in patent US12630528B2, “Amino aryl derivative useful as diacylglycerol acyltransferase 2 inhibitor and use thereof” (LG CHEM, LTD., priority 2019, dated 2026).

A value given as a limit tells only on which side of the number the result lay.

For this experiment, the target named is T1, human DGAT2 (Homo sapiens, UniProt Q96PD7).
T1 construct: FLAG (DYKDDDDK); made in house; host or cells: Sf-21 insect cells (BacPAK baculovirus system); membrane fraction used
T1 sequence (Q96PD7 1-388): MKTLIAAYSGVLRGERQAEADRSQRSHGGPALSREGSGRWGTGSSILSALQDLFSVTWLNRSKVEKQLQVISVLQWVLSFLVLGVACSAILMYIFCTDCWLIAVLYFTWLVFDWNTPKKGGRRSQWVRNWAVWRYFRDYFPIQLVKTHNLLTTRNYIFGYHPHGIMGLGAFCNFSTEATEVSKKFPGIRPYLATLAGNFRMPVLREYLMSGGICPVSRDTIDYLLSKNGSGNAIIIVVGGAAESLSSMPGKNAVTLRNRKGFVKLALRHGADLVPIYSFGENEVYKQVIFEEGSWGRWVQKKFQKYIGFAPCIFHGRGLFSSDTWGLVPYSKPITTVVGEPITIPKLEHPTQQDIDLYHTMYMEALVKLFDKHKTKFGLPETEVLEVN
The experiment in a line: DGAT2 enzyme activity inhibition, Phospholipid FlashPlate SPA. The class given is biochemical. Conditions: recombinant human DGAT2 membrane protein from Sf-21 cells; inhibition of [14C]-TG production; 37° C. Put shortly: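 Sf-21 membranes expressing recombinant human DGAT2 (2 μg) preincubated with compound (3 nM–10 μM, 1% DMSO) and 50 μM 1,2 sn-oleoyl glycerol, 20 min at 37 °C, then 1 μM [14C]oleoyl-CoA for 15 min. [14C]-TG counted by SPA; inhibition as % of untreated.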

For orientation: IC50 means the concentration that gives 50% inhibition.

`CCOc1ccccc1O[C@@H]1CCCN(c2cncc(Nc3nccc(N4CCC[C@@H](OCC(=O)O)C4)n3)n2)C1` [Example 132, 2-(((R)-1-(2-((6-((R)-3-(2-ethoxyphenoxy)piperidin-1-yl)pyrazin-2-yl)amino)pyrimidin-4-yl)piperidin-3-yl)oxy)acetic Acid]: the IC50 was determined as 6700 nM.

Take `CCOc1ccccc1O[C@@H]1CCCN(c2cncc(Nc3nccc(N4CCC[C@@H](OC(C)(C)C(=O)O)C4)n3)n2)C1` [Example 133, 2-(((R)-1-(2-((6-((R)-3-(2-ethoxyphenoxy)piperidin-1-yl)pyrazin-2-yl)amino)pyrimidin-4-yl)piperidin-3-yl)oxy)-2-methylpropanoic Acid]: the IC50 is 3600 nM.

For the compound `CCOc1cccnc1O[C@@H]1CCCN(c2cncc(Nc3nccc(O[C@H]4CC[C@H](C(=O)O)CC4)n3)n2)C1` [Example 136, (1R,4r)-4-((2-((6-((R)-3-((3-ethoxypyridin-2-yl)oxy)piperidin-1-yl)pyrazin-2-yl)amino)pyrimidin-4-yl)oxy)cyclohexane-1-carboxylic Acid], the IC50 stood at 300 nM.

Consider `CCOc1cccnc1O[C@@H]1CCCN(c2cncc(Nc3nccc(O[C@H]4CC[C@@H](C(=O)O)CC4)n3)n2)C1` [Example 138, (1S,4s)-4-((2-((6-((R)-3-((3-ethoxypyridin-2-yl)oxy)piperidin-1-yl)pyrazin-2-yl)amino)pyrimidin-4-yl)oxy)cyclohexane-1-carboxylic Acid], for which the IC50 was 780 nM.

Take `CCOc1ccccc1O[C@@H]1CCCN(c2cncc(Nc3nccc(-c4cccc(C(=O)O)n4)n3)n2)C1` [Example 139, (R)-6-(2-((6-(3-(2-ethoxyphenoxy)piperidin-1-yl)pyrazin-2-yl)amino)pyrimidin-4-yl)picolinic Acid]: the 50% inhibitory concentration (IC50) was over 10000 nM.

As to `CCOc1ccccc1O[C@@H]1CCCN(c2cncc(Nc3nccc(-c4cccc(CC(=O)O)c4)n3)n2)C1` [Example 140, (R)-2-(3-(2-((6-(3-(2-ethoxyphenoxy)piperidin-1-yl)pyrazin-2-yl)amino)pyrimidin-4-yl)phenyl)acetic Acid], the IC50 came to 150 nM.

Consider `CCOc1ccccc1O[C@@H]1CCCN(c2cncc(Nc3nccc(-c4cccc(C(C)(C)C(=O)O)c4)n3)n2)C1` [Example 141, (R)-2-(3-(2-((6-(3-(2-ethoxyphenoxy)piperidin-1-yl)pyrazin-2-yl)amino)pyrimidin-4-yl)phenyl)-2-methylpropanoic Acid], for which the IC50 stood at 1600 nM.

With `CCOc1cccnc1O[C@@H]1CCCN(c2cncc(Nc3nccc(-c4cccc(C(C)(C)C(=O)O)c4)n3)n2)C1` [Example 142, (R)-2-(3-(2-((6-(3-((3-ethoxypyridin-2-yl)oxy)piperidin-1-yl)pyrazin-2-yl)amino)pyrimidin-4-yl)phenyl)-2-methylpropanoic Acid], the 50% inhibitory concentration (IC50) worked out at 380 nM.

`CCOc1ccccc1O[C@@H]1CCCN(c2cncc(Nc3nccc(-c4ccc(C(C)(C)C(=O)O)cc4)n3)n2)C1` [Example 143, (R)-2-(4-(2-((6-(3-(2-ethoxyphenoxy)piperidin-1-yl)pyrazin-2-yl)amino)pyrimidin-4-yl)phenyl)-2-methylpropanoic Acid]: the IC50 turned out to be 200 nM.

Take `CCOc1cccnc1O[C@@H]1CCCN(c2cncc(Nc3nccc(-c4ccc(C(C)(C)C(=O)O)cc4)n3)n2)C1` [Example 144, (R)-2-(4-(2-((6-(3-((3-ethoxypyridin-2-yl)oxy)piperidin-1-yl)pyrazin-2-yl)amino)pyrimidin-4-yl)phenyl)-2-methylpropanoic Acid]: the IC50 was 230 nM.

On to `CCOc1ccccc1O[C@@H]1CCCN(c2cncc(Nc3nccc(-c4cccc(CCC(=O)O)c4)n3)n2)C1` [Example 145, (R)-3-(3-(2-((6-(3-(2-ethoxyphenoxy)piperidin-1-yl)pyrazin-2-yl)amino)pyrimidin-4-yl)phenyl)propanoic Acid], for which the IC50 amounted to 1700 nM.

For the compound `CCOc1ccccc1O[C@@H]1CCCN(c2cncc(Nc3nccc(-c4cccc(CC(C)(C)C(=O)O)c4)n3)n2)C1` [Example 146, (R)-3-(3-(2-((6-(3-(2-ethoxyphenoxy)piperidin-1-yl)pyrazin-2-yl)amino)pyrimidin-4-yl)phenyl)-2,2-dimethylpropanoic Acid], the IC50 was 390 nM.

On to `CCOc1cccnc1O[C@@H]1CCCN(c2cncc(Nc3nccc(-c4cccc(CC(C)(C)C(=O)O)c4)n3)n2)C1` [Example 147, (R)-3-(3-(2-((6-(3-((3-ethoxypyridin-2-yl)oxy)piperidin-1-yl)pyrazin-2-yl)amino)pyrimidin-4-yl)phenyl)-2,2-dimethylpropanoic Acid], for which the concentration for half-maximal inhibition (IC50) is 150 nM.

For `CCOc1ccccc1O[C@@H]1CCCN(c2cccc(Nc3nccc(-c4cccc(CC(C)(C)C(=O)O)c4)n3)n2)C1` [Example 148, (R)-3-(3-(2-((6-(3-(2-ethoxyphenoxy)piperidin-1-yl)pyridin-2-yl)amino)pyrimidin-4-yl)phenyl)-2,2-dimethylpropanoic Acid], the concentration for half-maximal inhibition (IC50) is 3100 nM.

In the case of `CCOc1ccccc1O[C@@H]1CCCN(c2nccc(Nc3nccc(-c4cccc(CC(C)(C)C(=O)O)c4)n3)n2)C1` [Example 149, (R)-3-(3-(2-((2-(3-(2-ethoxyphenoxy)piperidin-1-yl)pyrimidin-4-yl)amino)pyrimidin-4-yl)phenyl)-2,2-dimethylpropanoic Acid], the half-maximal inhibitory concentration (IC50) came to 5000 nM.

For `CCOc1ccccc1O[C@@H]1CCCN(c2ccnc(Nc3nccc(-c4cccc(CC(C)(C)C(=O)O)c4)n3)n2)C1` [Example 150, (R)-3-(3-(2-((4-(3-(2-ethoxyphenoxy)piperidin-1-yl)pyrimidin-2-yl)amino)pyrimidin-4-yl)phenyl)-2,2-dimethylpropanoic Acid], the IC50 came to 1200 nM.

On to `CCOc1cccnc1O[C@@H]1CCCN(c2cncc(Nc3nccc(-c4ccc(CC(=O)O)cc4)n3)n2)C1` [Example 152, (R)-2-(4-(2-((6-(3-((3-ethoxypyridin-2-yl)oxy)piperidin-1-yl)pyrazin-2-yl)amino)pyrimidin-4-yl)phenyl)acetic Acid], for which the IC50 was found to be 810 nM.

Turning to `CCOc1ccccc1O[C@@H]1CCCN(c2cncc(Nc3nccc(-c4ccc(CC(C)(C)C(=O)O)cc4)n3)n2)C1` [Example 153, (R)-3-(4-(2-((6-(3-(2-ethoxyphenoxy)piperidin-1-yl)pyrazin-2-yl)amino)pyrimidin-4-yl)phenyl)-2,2-dimethylpropanoic Acid], the IC50 came to 160 nM.

Regarding `CCOc1cccnc1O[C@@H]1CCCN(c2cncc(Nc3nccc(-c4ccc(CC(C)(C)C(=O)O)cc4)n3)n2)C1` [Example 154, (R)-3-(4-(2-((6-(3-((3-ethoxypyridin-2-yl)oxy)piperidin-1-yl)pyrazin-2-yl)amino)pyrimidin-4-yl)phenyl)-2,2-dimethylpropanoic Acid], the IC50 was found to be 180 nM.

For `CCOc1ccccc1O[C@@H]1CCCN(c2nccc(Nc3nccc(-c4ccc(CC(C)(C)C(=O)O)cc4)n3)n2)C1` [Example 155, (R)-3-(4-(2-((2-(3-(2-ethoxyphenoxy)piperidin-1-yl)pyrimidin-4-yl)amino)pyrimidin-4-yl)phenyl)-2,2-dimethylpropanoic Acid], the IC50 is 550 nM.

Consider `CCOc1ccccc1O[C@@H]1CCCN(c2ccnc(Nc3nccc(-c4ccc(CC(C)(C)C(=O)O)cc4)n3)n2)C1` [Example 156, (R)-3-(4-(2-((4-(3-(2-ethoxyphenoxy)piperidin-1-yl)pyrimidin-2-yl)amino)pyrimidin-4-yl)phenyl)-2,2-dimethylpropanoic Acid], for which the IC50 turned out to be 1200 nM.

Regarding `CCOc1cccnc1O[C@@H]1CCCN(c2ccnc(Nc3nccc(-c4ccc(CC(C)(C)C(=O)O)cc4)n3)n2)C1` [Example 157, (R)-3-(4-(2-((4-(3-((3-ethoxypyridin-2-yl)oxy)piperidin-1-yl)pyrimidin-2-yl)amino)pyrimidin-4-yl)phenyl)-2,2-dimethylpropanoic Acid], the IC50 stood at 720 nM.

For `CCOc1ccccc1O[C@@H]1CCCN(c2cncc(Nc3nccc(-c4cccc(OC(C)(C)C(=O)O)c4)n3)n2)C1` [Example 158, (R)-2-(3-(2-((6-(3-(2-ethoxyphenoxy)piperidin-1-yl)pyrazin-2-yl)amino)pyrimidin-4-yl)phenoxy)-2-methylpropanoic Acid], the half-maximal inhibitory concentration (IC50) was 1100 nM.

Turning to `CCOc1cccnc1O[C@@H]1CCCN(c2cncc(Nc3nccc(-c4cccc(OC(C)(C)C(=O)O)c4)n3)n2)C1` [Example 159, (R)-2-(3-(2-((6-(3-((3-ethoxypyridin-2-yl)oxy)piperidin-1-yl)pyrazin-2-yl)amino)pyrimidin-4-yl)phenoxy)-2-methylpropanoic Acid], the IC50 came to 560 nM.

For the compound `CCOc1ccccc1O[C@@H]1CCCN(c2cncc(Nc3nccc(-c4ccc(OC(C)(C)C(=O)O)cc4)n3)n2)C1` [Example 160, (R)-2-(4-(2-((6-(3-(2-ethoxyphenoxy)piperidin-1-yl)pyrazin-2-yl)amino)pyrimidin-4-yl)phenoxy)-2-methylpropanoic Acid], the IC50 turned out to be 130 nM.

As for `CCOc1ccccc1O[C@@H]1CCCN(c2cncc(Nc3nccc(-c4ccc(NC(C)(C)C(=O)O)cc4)n3)n2)C1` [Example 161, (R)-2-((4-(2-((6-(3-(2-ethoxyphenoxy)piperidin-1-yl)pyrazin-2-yl)amino)pyrimidin-4-yl)phenyl)amino)-2-methylpropanoic Acid], the IC50 was found to be 190 nM.
